Measured values published in patent US20140057997A1, “COSMETIC COMPOSITION COMPRISING 4-(3-ETHOXY-4-HYDROXYPHENYL)-2-BUTANONE AND A LIPOPHILIC SOLVENT” (L'OREAL, priority 2011, published 2014).

Test: Solubility stated in the introduction
Type: physicochemical

Solubility (in 2-octyldodecanol): very sparingly soluble
Solubility (in glycerol): very sparingly soluble
Solubility (in water): very sparingly soluble
SMILES: CCOc1cc(CCC(C)=O)ccc1O [4-(3-ethoxy-4-hydroxyphenyl)-2-butanone, 4-(3-Ethoxy-4-hydroxyphenyl)-2-butanone]
